Laboratory results taken from ChEMBL document CHEMBL1275254 (2010).
≈ marks a conversion by molar mass, not a printed value.

Tested on: Burkholderia pseudomallei
Test: Antimicrobial activity against Burkholderia pseudomallei 1026b after 24 hrs by broth microdilution method
Format: functional

| Compound | MIC [µg/mL] |
| --- | --- |
| CN[C@@H]1[C@H](O)[C@H](NC)[C@H]2O[C@@]3(O)C(=O)C[C@@H](C)O[C@H]3O[C@@H]2[C@H]1O [SPECTINOMYCIN] | 2050 (≈ 6160 µM) |
| CC1COc2c(N3CCN(C)CC3)c(F)cc3c(=O)c(C(=O)O)cn1c23 (stereo not drawn) [OFLOXACIN] | 2 (≈ 5.53 µM) |
| GENTAMICIN | 512 |
| CCC[C@@H]1C[C@@H](C(=O)N[C@@H]([C@H]2O[C@H](SC)[C@H](O)[C@@H](O)[C@H]2O)[C@H](C)Cl)N(C)C1 [CLINDAMYCIN] | > 4100 |
| CN[C@@H]1[C@H](O[C@H]2[C@H](O[C@H]3[C@H](O)[C@@H](O)[C@H](N=C(N)N)[C@@H](O)[C@@H]3N=C(N)N)O[C@@H](C)[C@]2(O)C=O)O[C@@H](CO)[C@H](O)[C@H]1O [STREPTOMYCIN] | > 2050 |
| NC[C@H]1O[C@H](O[C@H]2[C@H](O)[C@@H](O[C@H]3O[C@H](CO)[C@@H](O)[C@H](N)[C@H]3O)[C@H](N)C[C@@H]2N)[C@H](O)[C@@H](O)[C@@H]1O [KANAMYCIN] | 64 (≈ 132 µM) |
| O=C(N[C@H](CO)[C@H](O)c1ccc([N+](=O)[O-])cc1)C(Cl)Cl [CHLORAMPHENICOL] | 8 (≈ 24.8 µM) |
| CC[C@H]1OC(=O)[C@H](C)[C@@H](O[C@H]2C[C@@](C)(OC)[C@@H](O)[C@H](C)O2)[C@H](C)[C@@H](O[C@@H]2O[C@H](C)C[C@H](N(C)C)[C@H]2O)[C@](C)(OC)C[C@@H](C)C(=O)[C@H](C)[C@@H](O)[C@]1(C)O [CLARITHROMYCIN] | 128 (≈ 171 µM) |
